Results as given in patent US20100285959A1, “HERBICIDAL MIXTURES” (priority 2006, published 2010).

Legend:
corn (ZEAMD) = assay: Test 2 field trial, preemergence; assay type: in vivo, Zea mays ssp. indentata
Excerpt: Corn seeds (hybrid ‘Pioneer 31G96’) were planted in mid spring season, 3.8 cm deep in a clay loam soil having 2% organic matter and a pH of 6.6. Plots were 6.1 m long by 3.0 m wide with rows spaced 76 cm apart. Seeds were spaced 15 cm apart within the rows. The field was managed using conventional tillage practices. […] A few of the weed species could not be evaluated at every timing. […] Results are the means of the three replicates.

common chickweed (STEME) = assay: Test 9 field trial, emerged weeds before corn planting; assay type: in vivo, Stellaria media; conditions: g a.i./ha: Cpd 2 100, Glyphosate 1540, Paraquat 1150
Method: Corn seeds (hybrid ‘Pioneer 34M91 RR’) were planted in mid spring season, about 3.8 cm deep in a silty clay loam soil having a pH of 6.7. Plots were 9.1 m long by 3.0 m. The field was managed using no-till practices. […] Compound 2 and paraquat treatments, alone and in combination, also included a surfactant. Glyphosate, alone and with Compound 2, included ammonium sulfate in the treatment mixture. […] The effects on the weeds in the treated plots and untreated control plots were recorded 7, 14, 23, 30 and 57 days after application. Most of the weed species could not be evaluated at every timing. Corn response was only evaluated 57 days after application. […] Results are the means of the three replicates.

red deadnettle (LAMPU) = assay: Test 3 field trial, emerged weeds before corn planting; assay type: in vivo, Lamium purpureum; conditions: Cpd 2 100, glyphosate 1540, paraquat 1150 g a.i./ha, alone or combined
Excerpt: Corn seeds (hybrid ‘Pioneer 33J56’) were planted in early spring season, 3.8 cm deep in a silt loam soil having 2.4% organic matter and a pH of 6. Plots were 6.1 m long by 2.7 m wide with rows spaced 91.4 cm apart. The field was managed using no-till practices. […] Compound 2 and paraquat treatments, alone and in combination, also included a surfactant. Glyphosate, alone and with Compound 2, included ammonium sulfate in the treatment mixture. […] The effects on the weeds in the treated plots and untreated control plots were recorded 30, 42, 46 and 68 days after application. Most of the weed species could not be evaluated at every timing. Corn response was not evaluated because the growth was highly variable depending on the efficacy of the weed control treatments. […] Results are the means of the three replicates.

jimsonweed (DATST) = assay: Test 7 field trial, preemergence; assay type: in vivo, Datura stramonium
Method: Plots were 7.6 m long by 3.0 m wide with rows spaced 76 cm apart. Seeds were spaced 15 cm apart within the rows. The field was managed using conventional tillage practices. […] Wild radish was evaluated 14 and 28 days after application. […] Results are the means of the three replicates.

common ragweed (AMBEL) = assay: Test 14 field trial, preemergence, growth as percent of control; assay type: in vivo, Ambrosia artemisiifolia
Excerpt: Corn seeds (hybrid ‘Pioneer 31G96 RR’) were planted in mid spring season, 3.8 cm deep in a clay loam soil having 2% organic matter and a pH of 6.6. Plots were 6.1 m long by 3.0 m wide with rows spaced 76 cm apart. Seeds were spaced 15 cm apart within the rows. The field was managed using conventional tillage practices. […] Yellow nutsedge was only evaluated 19 and 28 days after application, and ivyleaf morningglory could only be evaluated 28 days after application. […] Results are the means of the three replicates. This growth inhibition data was converted to results in the form of “plant growth as a percent of control plant growth” using the calculation “100 minus growth inhibition”. […] For “growth as a percent of control” data, Colby's Equation calculates the expected additive effect of herbicidal mixtures having two active ingredients as follows:
Ga+b=GaGb/100 • wherein Ga+b is the growth as a percent of control of plants treated with the mixture expected from additive contribution of the individual components, • Ga is the observed growth as a percent of control of plants treated with the first active ingredient at the same use rate as in the mixture, and • Gb is the observed growth as a percent of control of plants treated with the second active ingredient at the same use rate as in the mixture. For mixtures having three active ingredients, Colby's Equation to calculate the expected additive effect of herbicidal mixtures is as follows:
Ga+b+c=GaGbGc/10,000 • wherein Ga and Gb are as defined above and • Ga+b+c is the growth as a percent of control of plants treated with the mixture expected from additive contribution of the individual components, and • Gc is the observed growth as a percent of control of plants treated with the third active ingredient at the same use rate as in the mixture. When these two forms of Colby's Equation are used, if the observed effects on weeds are less than the expected values, the mixture is synergistic.

winter barley (HORVW) = assay: Test 21 growth chamber, postemergence; assay type: in vivo, Hordeum vulgare; conditions: 19 DAA
Method: (§1) A test was conducted to evaluate the effects on winter barley (HORVW, Hordeum vulgare L.), winter wheat (TRZAW, Triticum aestivum L.), and several weed species, of mixtures of Compound 2 with the commercial herbicide (2,4-dichlorophenoxy)acetic acid (2,4-D), an auxin mimic. […] Plants were treated postemergence at the 2-4 leaf growth stage, and each treatment was replicated one time. […] Plants were watered as needed. […] Results are from single replicates.

redroot pigweed (AMARE) = assay: Test 23 growth chamber, postemergence; assay type: in vivo, Amaranthus retroflexus; conditions: 21 DAA
Method: as §1, with “species” for “species,”, “herbicides” for “herbicide”, “(2,4-D) and (4-chloro-2-methylphenoxy)acetic acid (MCPA),” for “(2,4-D), an”, “mimics.” for “mimic.”, “three times.” for “one time.”, “means of the three” for “from single”

Russian thistle (SASKR) = assay: Test 21 growth chamber, postemergence; assay type: in vivo, Salsola kali; conditions: 19 DAA
Method: as §1

## CCNc1nc(Cl)nc(NC(C)C)n1 [Atrazine, atrazine, reference compound]
Corn (ZEAMD); 18 DAA, g a.i./ha: Cpd 2 25, Atrazine 250
  ZEAMD Obs: 8
Corn (ZEAMD); 18 DAA, g a.i./ha: Cpd 2 50, Atrazine 500
  ZEAMD Obs: 5
Corn (ZEAMD); 18 DAA, g a.i./ha: Cpd 2 75, Atrazine 750
  ZEAMD Obs: 15
Corn (ZEAMD); 18 DAA, g a.i./ha: Cpd 2 100, Atrazine 1000
  ZEAMD Obs: 7
Corn (ZEAMD); 18 DAA, g a.i./ha: Cpd 2 150, Atrazine 1500
  ZEAMD Obs: 5
Corn (ZEAMD); 28 DAA, g a.i./ha: Cpd 2 25, Atrazine 250
  ZEAMD Obs: 2
Corn (ZEAMD); 28 DAA, g a.i./ha: Cpd 2 50, Atrazine 500
  ZEAMD Obs: 7
Corn (ZEAMD); 28 DAA, g a.i./ha: Cpd 2 75, Atrazine 750
  ZEAMD Obs: 12
Corn (ZEAMD); 28 DAA, g a.i./ha: Cpd 2 100, Atrazine 1000
  ZEAMD Obs: 8
Corn (ZEAMD); 28 DAA, g a.i./ha: Cpd 2 150, Atrazine 1500
  ZEAMD Obs: 3
Corn (ZEAMD); 55 DAA, g a.i./ha: Cpd 2 25, Atrazine 250
  ZEAMD Obs: 0
Corn (ZEAMD); 55 DAA, g a.i./ha: Cpd 2 50, Atrazine 500
  ZEAMD Obs: 0
Corn (ZEAMD); 55 DAA, g a.i./ha: Cpd 2 75, Atrazine 750
  ZEAMD Obs: 0
Corn (ZEAMD); 55 DAA, g a.i./ha: Cpd 2 100, Atrazine 1000
  ZEAMD Obs: 0
Corn (ZEAMD); 55 DAA, g a.i./ha: Cpd 2 150, Atrazine 1500
  ZEAMD Obs: 0

## O=C(O)CNCP(=O)(O)O [Glyphosate]
Common chickweed (STEME); 7 DAA
  STEME Obs: 42%
Common chickweed (STEME); 14 DAA
  STEME Obs: 84%
Common chickweed (STEME); 23 DAA
  STEME Obs: 93%
Common chickweed (STEME); 30 DAA
  STEME Obs: 100%
Common chickweed (STEME); 57 DAA
  STEME Obs: 99%
Red deadnettle (LAMPU); 30 DAA
  LAMPU Obs: 70%
Red deadnettle (LAMPU); 42 DAA
  LAMPU Obs: 52%
Red deadnettle (LAMPU); 46 DAA
  LAMPU Obs: 97%

## CCc1cccc(C)c1N(C(=O)CCl)[C@@H](C)COC [S-Metolachlor, S-metolachlor, reference compound]
Jimsonweed (DATST); 14 DAA, 1000 g a.i./ha
  DATST Obs: 65%
Jimsonweed (DATST); 28 DAA, 1000 g a.i./ha
  DATST Obs: 57%
Jimsonweed (DATST); 62 DAA, 1000 g a.i./ha
  DATST Obs: 0%
Common ragweed (AMBEL); 19 DAA, 1870 g a.i./ha
  Obs growth % of control: 100%
Common ragweed (AMBEL); 28 DAA, 1870 g a.i./ha
  Obs growth % of control: 75%
Common ragweed (AMBEL); 56 DAA, 1870 g a.i./ha
  Obs growth % of control: 93%

## COC(=O)c1nc(C2CC2)nc(N)c1Cl [Compound 2, methyl 6-amino-5-chloro-2-cyclopropyl-4-pyrimidinecarboxylate]
Corn (ZEAMD); hybrid Pioneer 31G96, corn (Zea mays ssp. indentata), in vivo, 55 days after application
  ZEAMD Obs: 0
Jimsonweed (DATST); 14 DAA, 125 g a.i./ha
  DATST Obs: 98%
Jimsonweed (DATST); 14 DAA, 250 g a.i./ha
  DATST Obs: 98%
Jimsonweed (DATST); 14 DAA, 500 g a.i./ha
  DATST Obs: 100%
Jimsonweed (DATST); 28 DAA, 125 g a.i./ha
  DATST Obs: 98%
Jimsonweed (DATST); 28 DAA, 250 g a.i./ha
  DATST Obs: 98%
Jimsonweed (DATST); 28 DAA, 500 g a.i./ha
  DATST Obs: 100%
Jimsonweed (DATST); 62 DAA, 125 g a.i./ha
  DATST Obs: 100%
Jimsonweed (DATST); 62 DAA, 500 g a.i./ha
  DATST Obs: 100%
Common chickweed (STEME); 7 DAA
  STEME Obs: 22%
Common chickweed (STEME); 14 DAA
  STEME Obs: 13%
Common chickweed (STEME); 23 DAA
  STEME Obs: 3%
Common chickweed (STEME); 30 DAA
  STEME Obs: 0%
Common chickweed (STEME); 57 DAA
  STEME Obs: 0%
Common ragweed (AMBEL); 19 DAA, 75 g a.i./ha
  Obs growth % of control: 75%
Common ragweed (AMBEL); 19 DAA, 100 g a.i./ha
  Obs growth % of control: 55%
Common ragweed (AMBEL); 28 DAA, 75 g a.i./ha
  Obs growth % of control: 20%
Common ragweed (AMBEL); 28 DAA, 100 g a.i./ha
  Obs growth % of control: 15%
Common ragweed (AMBEL); 56 DAA, 75 g a.i./ha
  Obs growth % of control: 17%
Common ragweed (AMBEL); 56 DAA, 100 g a.i./ha
  Obs growth % of control: 12%
Red deadnettle (LAMPU); 30 DAA
  LAMPU Obs: 87%
Red deadnettle (LAMPU); 42 DAA
  LAMPU Obs: 35%
Red deadnettle (LAMPU); 46 DAA
  LAMPU Obs: 100%
Winter barley (HORVW); Cpd 2 alone 16 g a.i./ha
  Postemergence HORVW Obs: 30
Redroot pigweed (AMARE); Cpd 2 alone 4 g a.i./ha
  Postemergence AMARE Obs: 43
Redroot pigweed (AMARE); Cpd 2 alone 8 g a.i./ha
  Postemergence AMARE Obs: 62
Redroot pigweed (AMARE); Cpd 2 alone 16 g a.i./ha
  Postemergence AMARE Obs: 68
Russian thistle (SASKR); Cpd 2 alone 16 g a.i./ha
  Postemergence SASKR Obs: 65

## O=C(O)COc1ccc(Cl)cc1Cl [2,4-D, (2,4-dichlorophenoxy)acetic acid]
Winter barley (HORVW); 2,4-D alone 125 g a.i./ha
  Postemergence HORVW Obs: 25
Winter barley (HORVW); 2,4-D alone 250 g a.i./ha
  Postemergence HORVW Obs: 25
Redroot pigweed (AMARE); 2,4-D or MCPA alone 250 g a.i./ha
  Postemergence AMARE Obs: 67
Russian thistle (SASKR); 2,4-D alone 125 g a.i./ha
  Postemergence SASKR Obs: 60
Russian thistle (SASKR); 2,4-D alone 250 g a.i./ha
  Postemergence SASKR Obs: 55
